Experimental data as given in patent US20250388553A1 (Incyte Corporation, priority 2018, published 2025).
Structures can show the parent of a compound that is named as a salt. Where two headings read alike, the source gives them in different places.

What was measured:
[1] = biological target: PI3Kγ (p110γ) Recombinant Human Protein (Homo sapiens (Human), UniProt P48736); test: PI3K-γ scintillation proximity assay; type: biochemical
[2] = biological target: PI3Kδ (p1106/p85a) Recombinant Human Protein (Homo sapiens (Human), UniProt O00329); test: PI3Kδ scintillation proximity assay; type: biochemical
[3] = Table A2, scintillation proximity assay, recombinant human p110γ
[4] = Table A2, scintillation proximity assay, recombinant human PI3Kδ
[5] = Table A3, scintillation proximity assay, recombinant human p110γ
[6] = Table A3, scintillation proximity assay, recombinant human PI3Kδ
[7] = Table A4, scintillation proximity assay, recombinant human p110γ
[8] = Table A4, scintillation proximity assay, recombinant human PI3Kδ

Sequence of PI3Kδ (p1106/p85a) Recombinant Human Protein (O00329 whole entry): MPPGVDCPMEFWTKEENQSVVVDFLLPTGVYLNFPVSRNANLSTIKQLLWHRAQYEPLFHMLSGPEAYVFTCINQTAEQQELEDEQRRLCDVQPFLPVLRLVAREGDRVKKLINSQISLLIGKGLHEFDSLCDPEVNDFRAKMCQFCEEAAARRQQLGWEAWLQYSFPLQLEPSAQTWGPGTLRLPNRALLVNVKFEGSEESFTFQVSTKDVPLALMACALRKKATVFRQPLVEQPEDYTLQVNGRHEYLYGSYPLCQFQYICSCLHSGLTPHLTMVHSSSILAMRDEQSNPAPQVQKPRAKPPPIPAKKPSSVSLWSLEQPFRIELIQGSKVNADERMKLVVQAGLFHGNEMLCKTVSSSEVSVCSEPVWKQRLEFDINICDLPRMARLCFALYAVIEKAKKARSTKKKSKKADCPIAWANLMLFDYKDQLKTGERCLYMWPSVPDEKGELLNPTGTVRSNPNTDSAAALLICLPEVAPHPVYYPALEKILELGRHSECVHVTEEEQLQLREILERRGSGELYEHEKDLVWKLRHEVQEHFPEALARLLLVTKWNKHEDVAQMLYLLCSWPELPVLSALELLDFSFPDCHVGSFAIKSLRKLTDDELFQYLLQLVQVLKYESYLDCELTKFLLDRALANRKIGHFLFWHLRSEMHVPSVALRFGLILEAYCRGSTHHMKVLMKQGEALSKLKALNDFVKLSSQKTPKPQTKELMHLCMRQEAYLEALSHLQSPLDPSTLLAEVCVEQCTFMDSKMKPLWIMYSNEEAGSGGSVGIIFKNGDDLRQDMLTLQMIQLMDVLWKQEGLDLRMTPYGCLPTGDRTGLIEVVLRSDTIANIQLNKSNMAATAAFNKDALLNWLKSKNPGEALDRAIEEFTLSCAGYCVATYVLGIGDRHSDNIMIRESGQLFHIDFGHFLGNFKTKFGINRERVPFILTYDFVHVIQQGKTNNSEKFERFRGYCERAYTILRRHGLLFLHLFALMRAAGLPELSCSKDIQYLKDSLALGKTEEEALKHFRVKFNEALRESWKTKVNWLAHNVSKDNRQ
Sequence of PI3Kδ (p1106/p85a) Recombinant Human Protein (P27986 whole entry partner): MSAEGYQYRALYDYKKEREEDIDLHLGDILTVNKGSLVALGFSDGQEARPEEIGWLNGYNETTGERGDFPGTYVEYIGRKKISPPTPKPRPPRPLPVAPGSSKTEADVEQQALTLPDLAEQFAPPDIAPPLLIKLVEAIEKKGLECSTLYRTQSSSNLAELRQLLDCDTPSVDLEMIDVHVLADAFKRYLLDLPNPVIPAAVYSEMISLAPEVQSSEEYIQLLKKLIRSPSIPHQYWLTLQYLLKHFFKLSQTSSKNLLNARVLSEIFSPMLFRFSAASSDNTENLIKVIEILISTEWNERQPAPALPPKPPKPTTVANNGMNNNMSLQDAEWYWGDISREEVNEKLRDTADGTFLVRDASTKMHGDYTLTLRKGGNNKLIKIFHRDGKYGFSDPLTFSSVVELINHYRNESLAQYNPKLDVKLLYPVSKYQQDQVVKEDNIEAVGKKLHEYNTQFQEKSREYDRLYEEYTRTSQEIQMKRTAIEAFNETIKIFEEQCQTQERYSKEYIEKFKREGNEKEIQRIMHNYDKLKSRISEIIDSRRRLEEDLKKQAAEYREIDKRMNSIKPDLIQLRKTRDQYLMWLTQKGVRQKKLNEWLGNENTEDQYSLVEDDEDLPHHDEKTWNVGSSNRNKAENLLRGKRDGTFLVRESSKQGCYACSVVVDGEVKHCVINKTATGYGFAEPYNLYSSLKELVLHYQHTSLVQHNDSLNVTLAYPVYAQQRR
Sequence of PI3Kγ (p110γ) Recombinant Human Protein (P48736 whole entry): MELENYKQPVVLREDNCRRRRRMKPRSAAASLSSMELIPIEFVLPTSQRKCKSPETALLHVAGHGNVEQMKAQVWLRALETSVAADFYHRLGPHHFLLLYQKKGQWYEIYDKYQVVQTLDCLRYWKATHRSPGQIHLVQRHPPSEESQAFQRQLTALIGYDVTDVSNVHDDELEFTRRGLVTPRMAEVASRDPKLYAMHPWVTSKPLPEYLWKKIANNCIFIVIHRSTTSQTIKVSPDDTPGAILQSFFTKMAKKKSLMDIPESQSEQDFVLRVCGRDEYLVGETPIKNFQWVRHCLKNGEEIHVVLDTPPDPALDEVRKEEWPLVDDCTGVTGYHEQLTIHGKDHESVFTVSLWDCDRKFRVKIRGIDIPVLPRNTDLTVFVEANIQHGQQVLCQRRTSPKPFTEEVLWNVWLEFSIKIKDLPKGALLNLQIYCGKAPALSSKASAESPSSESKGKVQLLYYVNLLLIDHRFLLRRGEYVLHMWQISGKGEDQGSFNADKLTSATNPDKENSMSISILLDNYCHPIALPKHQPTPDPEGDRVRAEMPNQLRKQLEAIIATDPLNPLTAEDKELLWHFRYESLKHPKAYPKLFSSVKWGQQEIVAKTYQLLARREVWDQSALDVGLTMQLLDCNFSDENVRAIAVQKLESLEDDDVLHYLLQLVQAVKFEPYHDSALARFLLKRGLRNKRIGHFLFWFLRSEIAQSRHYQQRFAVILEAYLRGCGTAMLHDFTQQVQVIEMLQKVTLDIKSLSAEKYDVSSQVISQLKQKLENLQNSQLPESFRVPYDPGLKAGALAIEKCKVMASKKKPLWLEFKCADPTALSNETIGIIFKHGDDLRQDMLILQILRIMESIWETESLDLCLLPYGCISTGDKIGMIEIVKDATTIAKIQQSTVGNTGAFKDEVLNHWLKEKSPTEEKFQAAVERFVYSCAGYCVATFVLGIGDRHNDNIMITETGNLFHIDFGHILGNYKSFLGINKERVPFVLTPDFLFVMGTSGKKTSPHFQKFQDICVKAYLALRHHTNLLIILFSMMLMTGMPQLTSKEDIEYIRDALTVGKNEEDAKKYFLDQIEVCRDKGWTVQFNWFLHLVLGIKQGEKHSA

Structure (SMILES)	IC50 [1, 5] [nM]	IC50 [2, 6] [nM]	IC50 [1, 7] [nM]	IC50 [2, 8] [nM]	further results
Cc1ccc(C(O)(C(N)=O)C(F)(F)F)cc1-c1cnc(N)c(C#CC2(O)CCN(C)C2=O)n1 (stereo not drawn) [Example 65, 2-(3-(5-amino-6-((3-hydroxy-1-methyl-2-oxopyrrolidin-3-yl)ethynyl)pyrazin-2-yl)-4-methylphenyl)-3,3,3-trifluoro-2-]					IC50 [1, 3]: < 100 nM; IC50 [2, 4]: < 100 nM
Cc1cnc(C#Cc2nc(-c3cc(C(O)(C(N)=O)C(F)(F)F)ccc3C)cnc2N)cn1 (stereo not drawn) [Example 66, 2-(3-(5-amino-6-((5-methylpyrazin-2-yl)ethynyl)pyrazin-2-yl)-4-methylphenyl)-3,3,3-trifluoro-2-hydroxypropanamide]					IC50 [1, 3]: < 100 nM; IC50 [2, 4]: < 100 nM
COc1cnc(C#Cc2nc(-c3cc(C(O)(C(N)=O)C(F)(F)F)ccc3C)cnc2N)cn1 (stereo not drawn) [Example 67, 2-(3-(5-amino-6-((5-methoxypyrazin-2-yl)ethynyl)pyrazin-2-yl)-4-methylphenyl)-3,3,3-trifluoro-2-hydroxypropanamide]					IC50 [1, 3]: < 100 nM; IC50 [2, 4]: < 100 nM
Cc1ccc(C(O)(C(N)=O)C(F)(F)F)cc1-c1cnc(N)c(C#Cc2cn3ccnc3cn2)n1 (stereo not drawn) [Example 68, 2-(3-(5-amino-6-(imidazo[1,2-a]pyrazin-6-ylethynyl)pyrazin-2-yl)-4-methylphenyl)-3,3,3-trifluoro-2-hydroxypropanamide]					IC50 [1, 3]: < 100 nM; IC50 [2, 4]: < 100 nM
Cc1ccc(C(O)(C(N)=O)C(F)(F)F)cc1-c1cnc(N)c(-c2ccnn2C)n1 (stereo not drawn) [Example 69, 2-(3-(5-Amino-6-(1-methyl-1H-pyrazol-5-yl)pyrazin-2-yl)-4-methylphenyl)-3,3,3-trifluoro-2-hydroxypropanamide trifluoroacetate]	< 100	< 100			
Cc1ccc(C(O)(C(N)=O)C(F)(F)F)cc1-c1cnc(N)c(-n2cccn2)n1 (stereo not drawn) [Example 93, 2-(3-(5-Amino-6-(1H-pyrazol-1-yl)pyrazin-2-yl)-4-methylphenyl)-3,3,3-trifluoro-2-hydroxypropanamide]	< 100	< 100			
CNC(=O)C(O)(c1ccc(C)c(-c2cnc(N)c(-n3cncn3)n2)c1)C(F)(F)F (stereo not drawn) [Example 94, 2-(3-(5-Amino-6-(1H-1,2,4-triazol-1-yl)pyrazin-2-yl)-4-methylphenyl)-3,3,3-trifluoro-2-hydroxy-N-methylpropanamide trifluoroacetate]	< 100	< 100			
Cc1ccc(C(O)(C(=O)N(C)C)C(F)(F)F)cc1-c1cnc(N)c(-n2cncn2)n1 (stereo not drawn) [Example 95, 2-(3-(5-Amino-6-(1H-1,2,4-triazol-1-yl)pyrazin-2-yl)-4-methylphenyl)-3,3,3-trifluoro-2-hydroxy-N,N-dimethylpropanamide trifluoroacetate]	100 to 500	100 to 500			
CNC(=O)C(O)(c1ccc(C)c(-c2cnc(N)c(-c3cnn(C)c3)n2)c1)C(F)(F)F (stereo not drawn) [Example 96, 2-(3-(5-Amino-6-(1-methyl-1H-pyrazol-4-yl)pyrazin-2-yl)-4-methylphenyl)-3,3,3-trifluoro-2-hydroxy-N-methylpropanamide]	< 100	100 to 500			
Cc1ccc(C(O)(C(N)=O)C(F)F)cc1-c1cnc(N)c(-c2ccnn2C)n1 (stereo not drawn) [Example 98, 2-(3-(5-Amino-6-(1-methyl-1H-pyrazol-5-yl)pyrazin-2-yl)-4-methylphenyl)-3,3-difluoro-2-hydroxypropanamide]	< 100	< 100			
Cc1ncc(-c2nc(-c3cc(C(O)(C(N)=O)C(F)F)ccc3C)cnc2N)o1 (stereo not drawn) [Example 100, 2-(3-(5-amino-6-(2-methyloxazol-5-yl)pyrazin-2-yl)-4-methylphenyl)-3,3-difluoro-2-hydroxypropanamide]	< 100	< 100			
Cc1ccc(C(O)(C(N)=O)C(F)F)cc1-c1cnc(N)c(-c2cnn(C)n2)n1 (stereo not drawn) [Example 101, 2-(3-(5-amino-6-(2-methyl-2H-1,2,3-triazol-4-yl)pyrazin-2-yl)-4-methylphenyl)-3,3-difluoro-2-hydroxypropanamide]	< 100	< 100			
Cc1ccc(C(O)(CNC=O)C(F)(F)F)cc1-c1cnc(N)c(-c2cnc(C3CC3)s2)n1 (stereo not drawn) [Example 102, N-(2-(3-(5-amino-6-(2-cyclopropylthiazol-5-yl)pyrazin-2-yl)-4-methylphenyl)-3,3,3-trifluoro-2-hydroxypropyl)formamide trifluoroacetate]	< 100	< 100			
CC(=O)NCC(O)(c1ccc(C)c(-c2cnc(N)c(-c3cnn(CC(F)(F)F)c3)n2)c1)C(F)(F)F (stereo not drawn) [Example 104, N-(2-(3-(5-amino-6-(1-(2,2,2-trifluoroethyl)-1H-pyrazol-4-yl)pyrazin-2-yl)-4-methylphenyl)-3,3,3-trifluoro-2-hydroxypropyl)acetamide trifluoroacetate]	< 100	< 100			
CC(=O)NCC(O)(c1ccc(C)c(-c2cnc(N)c(-c3cn[nH]c3)n2)c1)C(F)(F)F (stereo not drawn) [Example 105, N-(2-(3-(5-amino-6-(1H-pyrazol-4-yl)pyrazin-2-yl)-4-methylphenyl)-3,3,3-trifluoro-2-hydroxypropyl)acetamide trifluoroacetate]	< 100	< 100			
Cc1ccc(C(O)(C(N)=O)C(F)(F)F)cc1-c1cnc(N)c(C(=O)Nc2ccnn2C)n1 (stereo not drawn) [Example 106, 3-amino-6-(5-(3-amino-1,1,1-trifluoro-2-hydroxy-3-oxopropan-2-yl)-2-methylphenyl)-N-(1-methyl-1H-pyrazol-5-yl)pyrazine-2-carboxamide trifluoroacetate]	< 100	< 100			
CC(=O)N1CCN(c2nc(-c3cc(C(O)(C(N)=O)C(F)(F)F)ccc3C)cnc2N)CC1 (stereo not drawn) [Example 114, 2-(3-(6-(4-acetylpiperazin-1-yl)-5-aminopyrazin-2-yl)-4-methylphenyl)-3,3,3-trifluoro-2-hydroxypropanamide trifluoroacetate]			< 100	< 100	
Cc1ccc([C@@](O)(C(N)=O)C(F)(F)F)cc1-c1cnc(N)c(N2CCN(C(=O)C3CC3)CC2)n1 [Example 115, (R)-2-(3-(5-amino-6-(4-(cyclopropanecarbonyl)piperazin-1-yl)pyrazin-2-yl)-4-methylphenyl)-3,3,3-trifluoro-2-hydroxypropanamide trifluoroacetate]			< 100	< 100	
Cc1ccc(C(O)(C(N)=O)C(F)(F)F)cc1-c1cnc(N)c(N2CCN(c3ccccc3)CC2)n1 (stereo not drawn) [Example 116, 2-(3-(5-amino-6-(4-phenylpiperazin-1-yl)pyrazin-2-yl)-4-methylphenyl)-3,3,3-trifluoro-2-hydroxypropanamide trifluoroacetate]			< 100	100 to 500	
Cc1ccc(C(O)(C(N)=O)C(F)(F)F)cc1-c1cnc(N)c(N2CCN(c3ccccn3)CC2)n1 (stereo not drawn) [Example 117, 2-(3-(5-amino-6-(4-(pyridin-2-yl)piperazin-1-yl)pyrazin-2-yl)-4-methylphenyl)-3,3,3-trifluoro-2-hydroxypropanamide trifluoroacetate]					IC50 [1]: < 100 nM; IC50 [2]: < 100 nM
Cc1ccc(C)c(N2CCN(c3nc(-c4cc(C(O)(C(N)=O)C(F)(F)F)ccc4C)cnc3N)CC2)c1 (stereo not drawn) [Example 119, 2-(3-(5-amino-6-(4-(2,5-dimethylphenyl)piperazin-1-yl)pyrazin-2-yl)-4-methylphenyl)-3,3,3-trifluoro-2-hydroxypropanamide trifluoroacetate]			< 100	100 to 500	
Cc1ccc(C(O)(C(N)=O)C(F)(F)F)cc1-c1cnc(N)c(N2CCN(c3cncs3)CC2)n1 (stereo not drawn) [Example 120, 2-(3-(5-amino-6-(4-(thiazol-5-yl)piperazin-1-yl)pyrazin-2-yl)-4-methylphenyl)-3,3,3-trifluoro-2-hydroxypropanamide trifluoroacetate]			< 100	< 100	
Cc1ccc(C(O)(C(N)=O)C(F)(F)F)cc1-c1cnc(N)c(N2CCN(c3cccc(C(F)(F)F)c3)CC2)n1 (stereo not drawn) [Example 121, 2-(3-(5-amino-6-(4-(3-(trifluoromethyl)phenyl)piperazin-1-yl)pyrazin-2-yl)-4-methylphenyl)-3,3,3-trifluoro-2-hydroxypropanamide trifluoroacetate]			< 100	100 to 500	
Cc1ccc(C(O)(C(N)=O)C(F)(F)F)cc1-c1cnc(N)c(N2CCN(c3ccccc3C#N)CC2)n1 (stereo not drawn) [Example 122, 2-(3-(5-amino-6-(4-(2-cyanophcnyl)piperazin-1-yl)pyrazin-2-yl)-4-methylphenyl)-3,3,3-trifluoro-2-hydroxypropanamide trifluoroacetate]			< 100	< 100	
Cc1ccc(C(O)(C(N)=O)C(F)(F)F)cc1-c1cnc(N)c(N2CCN3C(=O)CCC3C2)n1 (stereo not drawn) [Example 126, 2-(3-(5-amino-6-(6-oxohexahydropyrrolo[1,2-a]pyrazin-2(1H)-yl)pyrazin-2-yl)-4-methylphenyl)-3,3,3-trifluoro-2-hydroxypropanamide trifluoroacetate]			< 100	< 100	
Cc1ccc(C(O)(C(N)=O)C(F)(F)F)cc1-c1cnc(N)c(N2CCN(C(=O)c3ccco3)CC2)n1 (stereo not drawn) [Example 127, 2-(3-(5-amino-6-(4-(furan-2-carbonyl)piperazin-1-yl)pyrazin-2-yl)-4-methylphenyl)-3,3,3-trifluoro-2-hydroxypropanamide trifluoroacetate]					IC50 [1]: < 100 nM; IC50 [2]: < 100 nM
Cc1ccc(C(O)(C(N)=O)C(F)(F)F)cc1-c1cnc(N)c(N2CCN(c3nccnc3C#N)CC2)n1 (stereo not drawn) [Example 128, 2-(3-(5-amino-6-(4-(3-cyanopyrazin-2-yl)piperazin-1-yl)pyrazin-2-yl)-4-methylphenyl)-3,3,3-trifluoro-2-hydroxypropanamide trifluoroacetate]			< 100	< 100	
